A word on the IC50: it is the concentration that inhibits the measured activity by half.

We go through seven compounds from patent US4963580A, “Substituted 5-hydroxy-2,3-dihydrobenzothiophenes as inhibitors of leukotriene biosynthesis” (Merck & Co., Inc., priority 1989, dated 1990).

The subject of assay [1] is production of leukotriene B4 (LTB4) in isolated rat polymorphonuclear leukocytes (PMN). The assay can be described thus: inhibition of LTB4 production in isolated rat polymorphonuclear leukocytes (Rat PMN). It is filed as cell-based, rat (male Sprague Dawley). As to conditions: Leukocyte, 5 min, LTB4 by RIA, A23187 10 μM, 37° C., read-out: Polymorphonuclear Leucocyte (PMN) Activity, Rat PMN IC50. Here is the method: (§1) The assay is conducted as follows:
B. Rat Peritoneal Polymorphonuclear leukocytes (PMN). Male Sprague Dawley rats were purchased from Taconic Farms, Germantown, NY. The animals were maintained on standard pellet diet and water ad lib. Elicited PMN were prepared from peritoneal exudates as follows: 8 ml of 12% sodium caseinate was injected intraperitoneally into male rats. After 18-20 hours, the rats were killed with CO2 and the peritoneal cavities were lavaged with Eagle's MEM (pH 7.7) without NaHCO3 but containing Earle's salts, L-glutamine, and 30 mM HEPES. The PMN were isolated by centrifugation, washed with MEM, filtered through lens paper to remove clumps, and adjusted to a concentration of 1×10^7 cells/ml.
(§2) C. Generation and Radiommumoassay of LTB4. PMNs (0.5 mL; 2.5×10^5 cells) are placed in plastic tubes and incubated (37° C., 2 min) with test compounds at the desired concentration or vehicle control (DMSO, final concentration 0.2%). The synthesis of LTB4 is initiated by the addition of calcium inophore A23187 (final concentration 10 μM) or vehicle on control samples and allowed to proceed for 5 minutes at 37° C. The reactions are then terminated by the addition of cold methanol (0.25 mL) and samples of the entire PMN reaction mixture are removed for radiommunoassay of LTB4.
(§3) Samples (50 μl ) of authentic LTB4 of known concentration in radiommunoassay buffer (RIA) buffer (potassium phosphate 1 mM; disodium EDTA 0.1 mM; Thimerosal 0.025 mM; gelatin 0.1%, pH 7.3) or PMN reaction mixture diluted 1:1 with RIA buffer are added to reaction tubes.
(§4) Thereafter [3H]-LTB4 (10 nCu in 100 μl RIA buffer) and LTB4 antiserum (100 μL of a 1:3000 dilution in RIA buffer) are added and the tubes vortexed. Reactants are allowed to equilibrate by incubation overnight at 4° C. To separate antibody-bound from free LTB4, aliquots (50 μL) of activated charcoal (3% activated charcoal in RIA buffer containing 0.25% Dextran T-70) were added, the tubes vortexed, and allowed to stand at room temperature for 10 minutes prior to centrifugation (1500×g; 10 min; 4° C). The supernatents containing antibody-bound LTB4 are decanted into vials and Aquasol 2 (4 mL) was added. Radioactivity is quantified by liquid scintillation spectrometry. […] The specificity of the antiserium and the sensitivity of the procedure have been described in detail elsewhere. (Rokach, J.; Hayes, E. C.; Griard, Y.; Lombardo. D. L.; Maycock, A. L.; Rosenthal, A. S.; Young, R. N.; Zamboni, R.; Zweerink, H. J. Prostaglandins Leukotrienes and Medicine 1984, 13, 21). The amount of LTB4 produced in test and control approx. 20ng/10^6cells) samples are then calculated. Inhibitory dose response curves are constructed using a four parameter algorithm and from these the IC50 values are determined.

Assay [2] has as its system production of leukotriene B4 (LTB4) in isolated human polymorphonuclear leukocytes (PMN). Description: inhibition of LTB4 production in isolated human polymorphonuclear leukocytes (Human PMN). It is filed as cell-based. The conditions noted are these: Leukocyte, 5 min, LTB4 by RIA, A23187 10 μM, 37° C., read-out: Polymorphonuclear Leucocyte (PMN) Activity, Human PMN IC50. As to the method: as §1
A. Preparation of Human PMN. Human blood is obtained by antecubital venepuncture from consenting volunteers who denied having taken medication within the previous 7 days. The blood is immediately added to 10% (v/v) trisodium citrate (0.13 M) or 5% (v/v) sodium heparin (1000 IU/mL). PMNs are isolated from anticoagulated blood by dextran sedimentation and centrifugation through Ficoll Hypaque (specific gravity 1.077), essentially as described by Boyum. (Boyum, A., Scand. J. Clin. Lab. Invest. 1968, 21 (Supp 97), 77). Contaminating erthrocytes are removed by lysis following exposure to ammonium chloride (0.16 M) in Tris buffer (pH 7.65), and the PMNs resuspended at 5×10^5 cells/mL in HEPES (15 mM) buffered Hanks balanced salt solution containing Ca^2+ (1.4 mM) and Mg^2+ (0.7 mM), pH 7.4. Viability is assessed by Trypan blue exclusion and is typically greater than 98%.
as §2, §3
as §4, with “(Rokach, J.; Hayes, E. C.; Griard, Y.; Lombardo. D. L.; Maycock, A. L.; Rosenthal, A. S.; Young, R. N.; Zamboni, R.; Zweerink, H. J. Prostaglandins Leukotrienes and Medicine 1984, 13, 21).” left out

Assay [3] concerns leukotriene biosynthesis in human polymorphonuclear leukocytes. The conditions noted are these: known inhibitors of leukotriene biosynthesis; cited from earlier work.
In assay [4] the test system is production of leukotriene B4 (LTB4) in polymorphonuclear leukocytes (PMN). The assay can be described thus: LTB4 inhibition in the above described in vitro test (PMN, species not stated). The class given is cell-based. The conditions noted are these: Leukocyte, standard compounds.

With `C=CCc1c(O)ccc2c1CCS2` [R4 = --CH2 CH= CH2, R6 = H, 4-(propen-3-yl)-5-hydroxy-2,3-dihydrobenzothiophene], the IC50 in assay [1] came to 887 nM; in assay [2], 2260 nM.

As to `CCCc1cc2c(cc1O)CCS2` [R4 = H, R6 = --C3 H8, 6-propyl-2,3-dihydro-5-hydroxybenzothiophene], the IC50 was determined as 211 nM in assay [1] and 326 nM in assay [2]. Consider `CC(C)(C)c1cc2c(cc1O)CCS2` [R4 = H, R6 = --C4 H10, 6-t-butyl-2,3-dihydro-5-hydroxybenzothiophene], for which the concentration for half-maximal inhibition (IC50) worked out at 207 nM in assay [1] and 142 nM in assay [2]. `C=CCc1cc2c(cc1O)CCS2` [R4 = H, R6 = --CH2 CH= CH2, 6-Allyl-5-hydroxy-2,3-dihydrobenzothiophene]: the IC50 in assay [1] turned out to be 190 nM; in assay [2] it was 319 nM.

For `Oc1ccc2c(c1)CCS2` [R4 = H, R6 = H, 5-Hydroxy-2,3-dihydrobenzothiophene], the IC50 in assay [1] worked out at 5230 nM. With `CC(Cc1ccc(O)c(O)c1)C(C)Cc1ccc(O)c(O)c1` (stereo not shown) [nordihydroguaiacetic acid, nordihydroguaiaretic acid], in assay [3], the “activity in human polymorphonuclear leukocytes assay” value is “active in this assay”. In assay [4], inhibition was half-maximal at 86 nM (IC50). Take `O=C1CCN(c2ccccc2)N1` [phenidone]: the “activity in human polymorphonuclear leukocytes assay” value in assay [3] was “active in this assay”. In addition, the IC50 in assay [4] turned out to be 9250 nM.
